The target in the assay is HLA B*0801 (Homo sapiens, UniProt P01889, A93T/A95T/D138N/E176V/E187T/K202T/Q94N/R180D/S35A/V36M/Y33D/Y91F). As to the kind of experiment: biochemical. It is filed as binding.

This is an account of results in publication PMC2248166, “Quantitative peptide binding motifs for 19 human and mouse MHC class I molecules derived using positional scanning combinatorial peptide libraries” (Immunome Research, 2008).

Where a SMILES comes first, the peptide text is derived from it.

Consider `CC[C@H](C)[C@H](NC(=O)[C@H](CC(N)=O)NC(=O)[C@@H](N)CCCNC(=N)N)C(=O)N[C@@H](C)C(=O)N[C@@H](CCCNC(=N)N)C(=O)N[C@@H](Cc1c[nH]cn1)C(=O)N[C@@H](CC(C)C)C(=O)N[C@@H](C)C(=O)N[C@@H](CC(C)C)C(=O)O` [3102.0780] (H-RNIARHLAL-OH), for which the half-maximal inhibitory concentration (IC50) (as a rule, the concentration needed to halve the response being measured) is 3.2 nM. For `CC[C@H](C)[C@H](NC(=O)[C@H](CCCCN)NC(=O)[C@@H](NC(=O)[C@H](CCCNC(=N)N)NC(=O)[C@H](CC(C)C)NC(=O)[C@@H](N)C(C)C)[C@@H](C)O)C(=O)N[C@H](C(=O)N[C@@H](CO)C(=O)N[C@@H](CC(C)C)C(=O)O)[C@@H](C)O` [3102.0709] (H-VLRTKITSL-OH) the value was 0.92 nM; for `CC[C@H](C)[C@H](NC(=O)[C@H](CCC(=O)O)NC(=O)[C@H](CCCNC(=N)N)NC(=O)[C@H](CC(C)C)NC(=O)[C@@H](N)CO)C(=O)N[C@@H](CO)C(=O)N[C@@H](CC(N)=O)C(=O)N[C@H](C(=O)N[C@H](C(=O)O)C(C)C)[C@@H](C)CC` [3102.0645] (H-SLREISNIV-OH), 10 nM; for `CC(C)[C@H](NC(=O)[C@H](Cc1ccccc1)NC(=O)[C@H](CS)NC(=O)[C@@H](NC(=O)[C@H](CCCCN)NC(=O)[C@H](CCCCN)NC(=O)[C@H](CCCCN)NC(=O)[C@H](CO)NC(=O)[C@@H](N)Cc1ccccc1)C(C)C)C(=O)O` [3102.0556] (H-FSKKKVCFV-OH), 6 nM. Under `CC[C@H](C)[C@H](NC(=O)[C@H](CCSC)NC(=O)[C@@H](NC(=O)[C@H](CCCCN)NC(=O)[C@H](CC(C)C)NC(=O)[C@@H](N)CO)[C@@H](C)CC)C(=O)N[C@@H](CCC(N)=O)C(=O)N[C@@H](CO)C(=O)N[C@@H](CCSC)C(=O)O` [3102.0631] (H-SLKIMIQSM-OH) stands 2.5 nM; under `CC[C@H](C)[C@H](NC(=O)[C@H](CCCCN)NC(=O)[C@H](CC(C)C)NC(=O)[C@@H](N)Cc1ccccc1)C(=O)N[C@@H](CCCCN)C(=O)N[C@H](C(=O)N[C@H](C(=O)N[C@@H](C)C(=O)N[C@@H](C)C(=O)O)[C@@H](C)O)C(C)C` [3102.0685] (H-FLKIKVTAA-OH), 15 nM. Molecule `CC[C@H](C)[C@H](NC(=O)[C@@H](N)CS)C(=O)N[C@H](C(=O)N[C@@H](CC(N)=O)C(=O)N[C@@H](CCCCN)C(=O)N[C@@H](Cc1ccccc1)C(=O)N[C@@H](CCSC)C(=O)N[C@@H](CO)C(=O)N[C@@H](Cc1ccccc1)C(=O)O)C(C)C` [3102.0620] (H-CIVNKFMSF-OH) registered an IC50 of 60 nM.

The molecule `CC[C@H](C)[C@H](NC(=O)[C@H](Cc1c[nH]cn1)NC(=O)[C@@H](NC(=O)[C@@H](N)CCSC)C(C)C)C(=O)N[C@@H](Cc1ccc(O)cc1)C(=O)N[C@@H](Cc1ccccc1)C(=O)N[C@H](C(=O)N[C@@H](CO)C(=O)N[C@@H](CC(C)C)C(=O)O)C(C)C` [3102.0878] (H-MVHIYFVSL-OH) had an IC50 of 1.4 nM. As for `CC[C@H](C)[C@H](NC(=O)[C@H](Cc1ccc(O)cc1)NC(=O)[C@H](CCSC)NC(=O)[C@H](CC(C)C)NC(=O)[C@@H](N)CCC(=O)O)C(=O)N[C@@H](Cc1ccccc1)C(=O)N[C@@H](C)C(=O)N[C@@H](C)C(=O)N[C@@H](CC(C)C)C(=O)O` [3102.0539] (H-ELMYIFAAL-OH), the half-maximal inhibitory concentration (IC50) came to 30 nM. Under `CC[C@H](C)[C@H](NC(=O)[C@@H](N)CCCNC(=N)N)C(=O)N[C@@H](CC(C)C)C(=O)N[C@@H](Cc1ccccc1)C(=O)N[C@@H](CCCNC(=N)N)C(=O)N[C@@H](CCCCN)C(=O)N1CCC[C@H]1C(=O)N[C@@H](CO)C(=O)N[C@@H](CC(C)C)C(=O)O` [3102.0787] (H-RILFRKPSL-OH) stands 32 nM. Under `CSCC[C@H](NC(=O)[C@H](Cc1ccccc1)NC(=O)[C@H](CCSC)NC(=O)[C@@H](N)CO)C(=O)N[C@@H](CO)C(=O)N[C@@H](CC(C)C)C(=O)N[C@@H](CC(C)C)C(=O)N1CCC[C@H]1C(=O)N[C@@H](C)C(=O)O` [3102.0656] (H-SMFMSLLPA-OH) stands 56 nM. The molecule `CC[C@H](C)[C@H](NC(=O)[C@H](CCCNC(=N)N)NC(=O)[C@H](CCCCN)NC(=O)[C@H](CCSC)NC(=O)[C@@H](NC(=O)[C@@H](N)CC(N)=O)C(C)C)C(=O)N[C@@H](CC(N)=O)C(=O)N[C@@H](CS)C(=O)N[C@@H](Cc1ccccc1)C(=O)O` [3102.0558] (H-NVMKRINCF-OH) showed an IC50 of 20 nM. `CC[C@H](C)[C@H](NC(=O)[C@H](C)NC(=O)[C@H](CO)NC(=O)[C@H](Cc1ccccc1)NC(=O)[C@H](CCCCN)NC(=O)[C@H](CCCCN)NC(=O)[C@H](CO)NC(=O)[C@@H](NC(=O)[C@@H](N)CC(N)=O)[C@@H](C)CC)C(=O)O` [3102.0717] (H-NISKKFSAI-OH) had an IC50 of 2.8 nM. As for `CC[C@H](C)[C@H](NC(=O)[C@H](CC(C)C)NC(=O)[C@H](Cc1c[nH]cn1)NC(=O)[C@H](CCCCN)NC(=O)[C@H](Cc1ccc(O)cc1)NC(=O)[C@@H](NC(=O)[C@@H]1CCCN1C(=O)[C@@H](N)CCSC)[C@@H](C)O)C(=O)N[C@@H](CCSC)C(=O)O` [3102.0727] (H-MPTYKHLIM-OH), the IC50 came out at 0.13 nM. Turning to `CC(C)C[C@H](NC(=O)[C@@H](NC(=O)[C@H](CCCCN)NC(=O)[C@H](Cc1ccccc1)NC(=O)[C@H](CCCCN)NC(=O)[C@@H](NC(=O)[C@H](CC(N)=O)NC(=O)[C@H](CC(C)C)NC(=O)[C@@H](N)CO)[C@@H](C)O)[C@@H](C)O)C(=O)O` [3102.0746] (H-SLNTKFKTL-OH), the concentration for half-maximal inhibition (IC50) turned out to be 8.7 nM. For `CSCC[C@H](NC(=O)[C@H](Cc1ccccc1)NC(=O)[C@@H](N)CC(C)C)C(=O)N[C@@H](CO)C(=O)N[C@@H](Cc1c[nH]cn1)C(=O)N[C@H](C(=O)N[C@@H](CCCCN)C(=O)N[C@@H](CO)C(=O)N[C@H](C(=O)O)C(C)C)C(C)C` [3102.0716] (H-LFMSHVKSV-OH) the value was 3.1 nM; for `CC[C@H](C)[C@H](NC(=O)[C@@H](N)CO)C(=O)N[C@@H](CC(N)=O)C(=O)N[C@H](C(=O)N[C@@H](CCCCN)C(=O)N[C@@H](Cc1c[nH]cn1)C(=O)N[C@H](C(=O)N[C@@H](CO)C(=O)N[C@H](C(=O)O)C(C)C)[C@@H](C)O)C(C)C` [3102.0630] (H-SINVKHTSV-OH), 13 nM; for `CC[C@H](C)[C@H](NC(=O)[C@@H]1CCCN1C(=O)[C@@H](NC(=O)[C@H](Cc1c[nH]cn1)NC(=O)[C@H](Cc1ccc(O)cc1)NC(=O)[C@H](CCCCN)NC(=O)[C@H](CCCNC(=N)N)NC(=O)[C@@H](N)Cc1ccc(O)cc1)C(C)C)C(=O)N[C@@H](CCSC)C(=O)O` [3102.0573] (H-YRKYHVPIM-OH), 62 nM. `CC(C)C[C@H](NC(=O)[C@H](CO)NC(=O)[C@H](C)NC(=O)[C@H](Cc1ccccc1)NC(=O)[C@H](CCCCN)NC(=O)[C@H](C)NC(=O)[C@H](Cc1ccc(O)cc1)NC(=O)[C@@H](NC(=O)[C@@H](N)[C@@H](C)O)C(C)C)C(=O)O` [3102.0754] (H-TVYAKFASL-OH) showed an IC50 of 1.6 nM. For the molecule `CC[C@H](C)[C@H](NC(=O)[C@H](Cc1c[nH]cn1)NC(=O)[C@H](Cc1ccccc1)NC(=O)[C@H](CCCNC(=N)N)NC(=O)[C@@H](NC(=O)[C@@H](N)CO)[C@@H](C)CC)C(=O)N[C@@H](CCCCN)C(=O)N[C@@H](CCC(=O)O)C(=O)N[C@@H](CC(C)C)C(=O)O` [3102.0695] (H-SIRFHIKEL-OH), 0.45 nM corresponded to half-maximal inhibition (IC50). Molecule `CC[C@H](C)[C@H](NC(=O)CNC(=O)[C@@H]1CCCN1C(=O)[C@@H](N)CO)C(=O)N[C@@H](CCCNC(=N)N)C(=O)N1CCC[C@H]1C(=O)N[C@@H](CCCNC(=N)N)C(=O)N[C@@H](Cc1ccccc1)C(=O)N[C@@H](CC(C)C)C(=O)O` [3102.0532] (H-SPGIRPRFL-OH) showed an IC50 of 56 nM. As for `CC[C@H](C)[C@H](NC(=O)[C@H](CCCCN)NC(=O)[C@@H]1CCCN1C(=O)[C@@H](N)CCC(=O)O)C(=O)N[C@@H](CO)C(=O)N[C@@H](CC(C)C)C(=O)N[C@@H](CC(C)C)C(=O)N1CCC[C@H]1C(=O)N[C@@H](CC(C)C)C(=O)O` [3102.0719] (H-EPKISLLPL-OH), the IC50 is 8.5 nM. `CC[C@H](C)[C@H](NC(=O)[C@H](CCC(N)=O)NC(=O)[C@H](CCC(=O)O)NC(=O)[C@H](CCC(N)=O)NC(=O)[C@H](CCCNC(=N)N)NC(=O)[C@H](CCCNC(=N)N)NC(=O)[C@H](CCSC)NC(=O)CNC(=O)[C@@H](N)CO)C(=O)O` [3102.0733] (H-SGMRRQEQI-OH): the IC50 worked out at 17 nM. In turn, `CC[C@H](C)[C@H](NC(=O)[C@@H]1CCCN1C(=O)[C@@H](N)CCC(=O)O)C(=O)N[C@@H](CCCCN)C(=O)N[C@@H](Cc1c[nH]cn1)C(=O)N[C@@H](CCCCN)C(=O)N[C@@H](Cc1ccc(O)cc1)C(=O)N1CCC[C@H]1C(=O)N[C@@H](CC(C)C)C(=O)O` [3102.0624] (H-EPIKHKYPL-OH) returned a half-inhibitory concentration (IC50) of 1.3 nM. Molecule `CSCC[C@H](NC(=O)[C@H](CC(C)C)NC(=O)[C@@H](N)CCSC)C(=O)N[C@@H](CCC(=O)O)C(=O)N[C@H](C(=O)N[C@@H](Cc1ccccc1)C(=O)N1CCC[C@H]1C(=O)N[C@@H](CCC(N)=O)C(=O)N[C@@H](CC(C)C)C(=O)O)C(C)C` [3102.0725] (H-MLMEVFPQL-OH) gave a concentration for half-maximal inhibition (IC50) of 13 nM.

The molecule `CSCC[C@H](NC(=O)[C@H](CCCCN)NC(=O)[C@@H](N)CCC(=O)O)C(=O)N[C@@H](CCCNC(=N)N)C(=O)N[C@@H](CCCNC(=N)N)C(=O)N[C@@H](CCC(=O)O)C(=O)N[C@@H](CCCNC(=N)N)C(=O)N[C@@H](C)C(=O)N[C@@H](C)C(=O)O` [3102.0739] (H-EKMRRERAA-OH) had an IC50 of 1.8 nM. Under `CSCC[C@H](N)C(=O)N[C@@H](Cc1ccc(O)cc1)C(=O)N[C@@H](CCCCN)C(=O)N[C@@H](CO)C(=O)N[C@@H](CCCNC(=N)N)C(=O)N[C@H](C(=O)N[C@@H](CCC(=O)O)C(=O)N[C@@H](CCCNC(=N)N)C(=O)N[C@H](C(=O)O)C(C)C)C(C)C` [3102.0607] (H-MYKSRVERV-OH) stands 47 nM; under `CSCC[C@H](NC(=O)[C@H](CO)NC(=O)[C@H](Cc1c[nH]cn1)NC(=O)[C@H](CCCCN)NC(=O)[C@@H](NC(=O)[C@H](Cc1ccc(O)cc1)NC(=O)[C@H](CCSC)NC(=O)[C@@H](N)Cc1ccccc1)[C@@H](C)O)C(=O)N[C@@H](CC(C)C)C(=O)O` [3102.0684] (H-FMYTKHSML-OH), 0.2 nM. In the case of `CSCC[C@H](NC(=O)[C@H](CC(N)=O)NC(=O)[C@H](Cc1ccccc1)NC(=O)[C@H](Cc1ccccc1)NC(=O)[C@H](CCCNC(=N)N)NC(=O)[C@H](CO)NC(=O)[C@H](CC(C)C)NC(=O)[C@H](CC(C)C)NC(=O)[C@H](C)N)C(=O)O` [3102.0744] (H-ALLSRFFNM-OH), the IC50 was 3 nM.
